Reference: US20190365675A1, “COMPOSITIONS FOR THE PREVENTION AND/OR TREATMENT OF ALCOHOL USE DISORDERS” (SERVICIO ANDALUZ DE SALUD, priority 2016, published 2019)

How the values were obtained:
MD2 = MD2 protein expression in frontal cortex after ethanol intoxication; type: in vivo, Wistar rats; conditions: 2-4 h after last ethanol, OEA pre-treatment
Method: The animals were treated with intragastric (i.g.) ethanol 3 times a day using an i.g. cannula (16G needle, Fisher Scientific, Waltham, Mass., USA), following a protocol based on a slightly modified standard 4-day alcohol intoxication pattern (Bernier et al., 2002a, b) (FIG. 1A). The ethanol doses were administered every 8 h for a total time of 4 days. The rats treated with ethanol received an initial loading dose of 5 g/kg of ethanol in a 30% solution (w/v) and then a maximum maintenance dose of 3 g/kg, which were determined based on blood ethanol levels (BEL). This repeated standard alcohol intoxication paradigm kept BEL intoxication relatively constant in a range of sedation/ataxia (190 to 430 mg/dl, Table 3), according to the 6-point alcohol intoxication behavior scale (Majchrowicz, 1975). The mean dose of ethanol/rat/day (days 1-4) was 7.06 g/kg, similar to other studies (Obernier et al., 2002a, b). OEA (5 mg/kg, i.p., except initial dose of 10 mg/kg i.p.; synthesized as described in Giuffrida et al., 2000) was dissolved in the vehicle (5% Tween-80 in saline solution) and injected 10 minutes before each of the administrations of ethanol by an intragastric gavage. […] The autoradiograph was quantified by densitometry (NIH ImageJ® software, National Biosciences, Lincoln, Nebr. USA) and expressed as optical density (OD). […]

caspase-3 = assay: Caspase-3 mRNA, protein and activity (fluorometric assay) in frontal cortex after ethanol intoxication; type: in vivo, Wistar rats; conditions: OEA pre-treatment
Method: The animals were treated with intragastric (i.g.) ethanol 3 times a day using an i.g. cannula (16G needle, Fisher Scientific, Waltham, Mass., USA), following a protocol based on a slightly modified standard 4-day alcohol intoxication pattern (Bernier et al., 2002a, b) (FIG. 1A). The ethanol doses were administered every 8 h for a total time of 4 days. The rats treated with ethanol received an initial loading dose of 5 g/kg of ethanol in a 30% solution (w/v) and then a maximum maintenance dose of 3 g/kg, which were determined based on blood ethanol levels (BEL). This repeated standard alcohol intoxication paradigm kept BEL intoxication relatively constant in a range of sedation/ataxia (190 to 430 mg/dl, Table 3), according to the 6-point alcohol intoxication behavior scale (Majchrowicz, 1975). The mean dose of ethanol/rat/day (days 1-4) was 7.06 g/kg, similar to other studies (Obernier et al., 2002a, b). OEA (5 mg/kg, i.p., except initial dose of 10 mg/kg i.p.; synthesized as described in Giuffrida et al., 2000) was dissolved in the vehicle (5% Tween-80 in saline solution) and injected 10 minutes before each of the administrations of ethanol by an intragastric gavage. The anti-inflammatory activity of OEA at 10 mg/kg per intraperitoneal route in the frontal cortex before the injection of LPS (Sayd et al., 2014) was previously referred to. In this study, OEA is repeatedly injected as a pre-treatment before each administration of ethanol. The doses of OEA chosen in this study are in the range of doses tested as being pharmacologically active (5-20 mg/kg, i.p.) (Bilbao et al., 2015). […] The autoradiograph was quantified by densitometry (NIH ImageJ® software, National Biosciences, Lincoln, Nebr. USA) and expressed as optical density (OD). […] The quantitative changes in mRNA levels were estimated by means of RT-PCR, carried out in the presence of the SYBR green primer using a 20-L reaction in a Rotor-Gene (Corbett Research®, Mortlake, NSW, Australia). […] Caspase-3 activity was determined using a fluorometric assay kit (Abnova®, Taiwan) according to the manufacturer's protocol. […]

For `CCCCCCCC/C=C\CCCCCCCC(=O)NCCO` [OEA, oleoylethanolamide], the “Ethanol-induced increase in MD2 protein” value (MD2) was “inhibited”, the “Alcohol-induced overexpression of caspase-3 mRNA” value (caspase-3) was “unable to prevent” and the “Ethanol-induced overexpression of caspase-3 protein” value (caspase-3) was “prevented”. The “Ethanol-induced increase in activity of caspase-3” value (caspase-3; fluorometric assay) was “reverted”.
